inhibition, IC50 and Ki data for 20 compounds are collected here from ChEMBL document CHEMBL4043111, “Asymmetric synthesis and evaluation of epoxy-α-acyloxycarboxamides as selective inhibitors of cathepsin L” (Bioorg Med Chem, 2017).

Several values for one entry are separate records, joined by “and”; a condition that tells them apart may be missing. Equal values may be shown once. Activity calls are given as the source filed them. The rule behind the calls is not given here.

Assay [1] has as its target T1, Procathepsin L (Homo sapiens, UniProt P07711). Put plainly: Inhibition of human liver cathepsin L at 25 uM peincubated for 5 mins followed by Z-FR-MCA addition by spectrofluorimetric method relative to control.
Target sequence in this assay (P07711 114-333 limits assumed): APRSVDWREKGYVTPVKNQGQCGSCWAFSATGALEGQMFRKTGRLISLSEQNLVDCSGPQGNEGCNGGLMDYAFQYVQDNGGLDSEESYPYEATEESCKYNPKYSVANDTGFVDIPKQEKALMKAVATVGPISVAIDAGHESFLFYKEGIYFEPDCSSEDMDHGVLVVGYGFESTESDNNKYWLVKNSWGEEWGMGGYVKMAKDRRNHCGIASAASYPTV
Assay [2] concerns the target T2, Cathepsin K (Homo sapiens) (UniProt P43235).
T2 sequence (whole entry): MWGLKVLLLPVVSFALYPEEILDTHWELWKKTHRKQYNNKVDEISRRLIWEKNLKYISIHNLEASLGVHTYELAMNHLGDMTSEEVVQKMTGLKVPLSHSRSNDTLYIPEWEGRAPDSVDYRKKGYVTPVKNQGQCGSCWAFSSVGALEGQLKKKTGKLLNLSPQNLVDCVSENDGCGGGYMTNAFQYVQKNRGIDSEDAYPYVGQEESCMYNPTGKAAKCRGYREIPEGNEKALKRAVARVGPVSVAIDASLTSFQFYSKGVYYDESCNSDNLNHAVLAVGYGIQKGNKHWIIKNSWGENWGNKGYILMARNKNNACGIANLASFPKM
In words: Inhibition of cathepsin K (unknown origin) at 25 uM peincubated for 5 mins followed by Z-FR-MCA addition by spectrofluorimetric method relative to control.

The target of assay [3] is T3, Cathepsin L2 (Homo sapiens) (UniProt O60911).
T3 sequence (whole entry): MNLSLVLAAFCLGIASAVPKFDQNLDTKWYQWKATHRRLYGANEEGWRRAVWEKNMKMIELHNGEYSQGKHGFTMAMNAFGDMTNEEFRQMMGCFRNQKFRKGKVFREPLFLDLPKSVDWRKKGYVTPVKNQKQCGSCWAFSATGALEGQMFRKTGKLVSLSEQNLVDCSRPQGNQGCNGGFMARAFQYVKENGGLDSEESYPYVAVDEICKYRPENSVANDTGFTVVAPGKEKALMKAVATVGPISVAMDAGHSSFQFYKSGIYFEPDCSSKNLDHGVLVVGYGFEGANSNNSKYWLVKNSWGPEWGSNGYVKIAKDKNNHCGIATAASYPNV
Put plainly: Inhibition of cathepsin V (unknown origin) at 25 uM peincubated for 5 mins followed by Z-FR-MCA addition by spectrofluorimetric method relative to control.

Assay [4] has as its target T1, Procathepsin L. Put plainly: Reversible inhibition of human liver cathepsin L peincubated for 30 mins followed by addition of 7 uM of substrate Z-FR-MCA measured after 10 mins by spectrofluorimetric method.
Target sequence in this assay (P07711 whole entry): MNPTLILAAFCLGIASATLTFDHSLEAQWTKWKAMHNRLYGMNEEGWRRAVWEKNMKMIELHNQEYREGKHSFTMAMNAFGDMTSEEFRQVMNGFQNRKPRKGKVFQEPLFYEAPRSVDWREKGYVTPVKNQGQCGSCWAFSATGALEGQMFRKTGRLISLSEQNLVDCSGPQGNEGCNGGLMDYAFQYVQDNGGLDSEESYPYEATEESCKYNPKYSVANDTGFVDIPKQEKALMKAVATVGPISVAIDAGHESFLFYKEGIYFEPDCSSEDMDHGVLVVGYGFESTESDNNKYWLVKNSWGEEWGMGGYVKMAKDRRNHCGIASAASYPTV
Assay [5] addresses T1, Procathepsin L. In words: Reversible inhibition of human liver cathepsin L peincubated for 30 mins followed by addition of 3.5 uM of substrate Z-FR-MCA measured after 10 mins by spectrofluorimetric method.
Target sequence in this assay (P07711 whole entry): as above
Assay [6] addresses T1, Procathepsin L. Put plainly: Reversible inhibition of human liver cathepsin L peincubated for 30 mins followed by addition of 9 uM of substrate Z-FR-MCA measured after 10 mins by spectrofluorimetric method.
Target sequence in this assay (P07711 whole entry): as above
A further assay addresses T4, Cathepsin K (Homo sapiens, UniProt P43235).
T4 sequence (P43235 whole entry): T2 sequence (whole entry)
Put plainly: Inhibition of cathepsin K (unknown origin) peincubated for 5 mins followed by Z-FR-MCA addition by spectrofluorimetric method.

The target of assay [7] is T1, Procathepsin L. In words: Reversible inhibition of human liver cathepsin L peincubated for 30 mins followed by addition of 5.5 uM of substrate Z-FR-MCA measured after 10 mins by spectrofluorimetric method.
Target sequence in this assay (P07711 whole entry): as above
Assay [8] has as its target T1, Procathepsin L. In words: Uncompetitive inhibition of cathepsin L (unknown origin) peincubated for 30 mins followed by substrate Z-FR-MCA addition measured after 10 mins by spectrofluorimetric method.
Target sequence in this assay (P07711 whole entry): as above
For assay [9], the target named is T1, Procathepsin L. Put plainly: Reversible inhibition of human liver cathepsin L peincubated for 30 mins followed by addition of 5 uM of substrate Z-FR-MCA measured after 10 mins by spectrofluorimetric method.
Target sequence in this assay (P07711 whole entry): as above
The target of assay [10] is T1, Procathepsin L. Put plainly: Reversible inhibition of human liver cathepsin L peincubated for 30 mins followed by addition of 6 uM of substrate Z-FR-MCA measured after 10 mins by spectrofluorimetric method.
The target of assay [11] is T1, Procathepsin L. Put plainly: Reversible inhibition of human liver cathepsin L peincubated for 30 mins followed by addition of 4.5 uM of substrate Z-FR-MCA measured after 10 mins by spectrofluorimetric method.
In assay [12] the target is T1, Procathepsin L. In words: Reversible inhibition of human liver cathepsin L peincubated for 30 mins followed by addition of 8 uM of substrate Z-FR-MCA measured after 10 mins by spectrofluorimetric method.
For assay [13], the target named is T1, Procathepsin L. In words: Reversible inhibition of human liver cathepsin L peincubated for 30 mins followed by addition of 4 uM of substrate Z-FR-MCA measured after 10 mins by spectrofluorimetric method.
Assay [14] deals with T1, Procathepsin L. In words: Inhibition of human liver cathepsin L peincubated for 5 mins followed by Z-FR-MCA addition by spectrofluorimetric method.

`CCCCCCC[C@H]1O[C@@H]1C(OC(=O)C1CCCCC1)C(=O)NCCCC` (mixture of isomers) had an inhibition at Procathepsin L [1] of 70%.
Take `CCCCCCC[C@H]1O[C@@H]1C(OC(=O)[C@H]1CCCN1C(=O)OC(C)(C)C)C(=O)NC(C)(C)C` (mixture of isomers): the inhibition in assay [2] is 38.7%; on Procathepsin L [1], 67.3%; in assay [3], 0%.
With `CCCCCCC[C@H]1O[C@@H]1C(OC(=O)c1ccc(I)cc1)C(=O)NC1CCCCC1` (mixture of isomers), the half-inhibitory concentration (IC50) at Procathepsin L [4] amounted to 7.17 µM; at Procathepsin L [5] it was 16.9 µM; at Procathepsin L [6], 6.09 µM; on Cathepsin K, 5.72 µM; against Procathepsin L [7] it was 5.13 µM; at Procathepsin L [9] it was 9.78 µM. For the same compound, the IC50 against Procathepsin L [10] was found to be 5.26 µM; on Procathepsin L [11], 11.1 µM; at Procathepsin L [12] it was 5.75 µM; at Procathepsin L [13], 11.5 µM. The results for the inhibition (in assay [2]; on Procathepsin L [1]; in assay [3]) were 78%, 98.5% and 30.8%, respectively. This compound came in with an inhibition constant (Ki) on Procathepsin L [8] of 1.33 µM.
As for `CCCCCCC[C@H]1O[C@@H]1C(OC(=O)CC(C)C)C(=O)NCCCC` (mixture of isomers), the inhibition entry at Procathepsin L [1] is “inactive”.
The same measure, in the same setting: with `CCCCCCC[C@H]1O[C@@H]1C(OC(=O)c1ccccc1)C(=O)NCC(=O)OC` (mixture of isomers) the entry was “inactive”.
On Procathepsin L [1], `CCCCCCC[C@H]1O[C@@H]1C(OC(=O)CCCCCBr)C(=O)NCCCC` (mixture of isomers) registered an inhibition of 69%.
The same measure, in the same setting: the figure for `CCCCCCC[C@H]1O[C@@H]1C(OC(=O)c1ccc(I)cc1)C(=O)NCCCC` (mixture of isomers) is 74%.
As for `CCCCCCC[C@H]1O[C@@H]1C(OC(=O)c1ccccc1)C(=O)NC(C)(C)C` (mixture of isomers), 12.5 µM corresponded to half-maximal inhibition at Cathepsin K (IC50). For the same compound, the results for the inhibition (in assay [2]; on Procathepsin L [1]; in assay [3]) were 69.1%, 86.4% and 43.5%, respectively.
Consider `CCCCCCC[C@H]1O[C@@H]1C(OC(=O)CCCCCBr)C(=O)NC(C)(C)C` (mixture of isomers), for which the inhibition result at Procathepsin L [1] was “inactive”.
For `CCCCCCC[C@H]1O[C@@H]1C(OC(=O)C1CCCCC1)C(=O)NC(C)(C)C` (mixture of isomers), on Procathepsin L [1], the inhibition entry is “inactive”.
For `CCCCCCC[C@H]1O[C@@H]1C(OC(=O)CCCCCBr)C(=O)NC1CCCCC1` (mixture of isomers), on Procathepsin L [1], the inhibition worked out at 69%.
Take `CC(C)(C)NC(=O)C(OC(=O)c1ccccc1)[C@H]1O[C@@H]1c1ccccc1[N+](=O)[O-]` (mixture of isomers): the inhibition in [2] was 21.5%; on Procathepsin L [1], 10.5%; in assay [3], 21.3%.
`CCCCCCCC1OC1C(OC(=O)c1ccc(I)cc1)C(=O)NC1CCCCC1` (stereo not given): the half-maximal inhibitory concentration (IC50) against Procathepsin L [14] is 2.2 µM and 4.28 µM.
`CCCCCCC[C@H]1O[C@@H]1C(OC(=O)c1ccc(I)cc1)C(=O)NC(C)(C)C` (mixture of isomers): the inhibition against Procathepsin L [1] stood at 65%.
In turn, `CCCCCCCC1OC1C(OC(=O)c1ccc(I)cc1)C(=O)NC1CCCCC1` (mixture of isomers; form 2) came in with an IC50 against Procathepsin L [14] of 2.02 µM.
Regarding `CCCCCCC[C@H]1O[C@@H]1C(OC(=O)[C@@H]1CCCN1C(=O)OC(C)(C)C)C(=O)NC(C)(C)C` (single isomer, unassigned), the inhibition in assay [2] is 39.3%; against Procathepsin L [1], 52.6%; in assay [3] it was 0%.
The corresponding values for `CCCC(=O)OC(C(=O)NCc1ccccc1)[C@H]1O[C@@H]1c1ccccc1[N+](=O)[O-]` (mixture of isomers) are 0%, 2.9% and 3.9%.
On Procathepsin L [14], `CCCCCCCC1OC1C(OC(=O)c1ccc(I)cc1)C(=O)NC1CCCCC1` (mixture of isomers; form 1) registered an IC50 of 1.13 µM.
For the compound `CCCCCCCCNC(=O)C(OC(=O)CCCCCBr)[C@H]1O[C@@H]1c1ccccc1[N+](=O)[O-]` (mixture of isomers), the inhibition against Procathepsin L [1] amounted to 84%. Besides, the IC50 against Procathepsin L [14] amounted to 8.55 µM.
`CCCCCCC[C@H]1O[C@@H]1C(OC(=O)CC(C)C)C(=O)NCc1ccccc1` (mixture of isomers) displayed an inhibition against Procathepsin L [1] of 43%.

The inhibition is the drop in the measured response relative to a control, in per cent. One may read the IC50 as the concentration that gives 50% inhibition. Low values mean greater potency, high ones weaker potency. For orientation: Ki means a dissociation constant, usually derived from enzyme kinetics or from competition with a known ligand. The low end stands for a stronger hold on the target, the high end for a looser hold on the target.
